# Measured values taken from paper PMC8328489, “Automated Synthesis and Initial Evaluation of (4′-Amino-5′,8′-difluoro-1′H-spiro[piperidine-4,2′-quinazolin]-1-yl)(4-[^18F]fluorophenyl)methanone for PET/MR Imaging of Inducible Nitric Oxide Synthase” (Molecular Imaging, 2021).
# Read-outs that look alike come from different tables or passages of the source.
# Columns and labels:
# [1] = Log P measurement (1-octanol/phosphate buffer, UV); type: physicochemical; settings: 1-octanol / 0.02 M phosphate buffer; 1-octanol / phosphate buffer pH 7.4
# Protocol: The partition coefficient of FBAT, determined between 1-octanol and 0.02 M phosphate buffer at pH 7.4, was measured by UV spectrophotometer (SPARK 10 M from Tecan) at wavelength 230 nm.
# [2] = tested on: iNOS; settings: cited from earlier work
# [3] = tested on: eNOS; settings: cited from earlier work; for selectivity vs. eNOS: iNOS vs. eNOS
# [4] = tested on: nNOS; parameters: method as in PMID 11327580; settings: cited from earlier work
# [5] = dog, 10 min postinjection; cited from earlier work
# [6] = within 5 min postinjection; cited from earlier work
# [7] = tested on: murine microglial BV2 cells; experiment: In vitro [^18F]FBAT uptake assay; type: cell-based; settings: pretreatment 0.1 mM or 1 mM for 1 h
# Protocol: BV2 cells were cultured as described above, washed three times with fresh medium, pretreated with a selective iNOS inhibitor, aminoguanidine (AMG), (0, 1, or 0.1 mM) for 1 h, and then treated with cell culture media containing LPS and the inhibitor. At the indicated time points, the cells were washed thrice with fresh cell culture media, then incubated in fresh cell culture media continuing the radiotracer [^18F]FBAT at 0.37 MBq/mL for 15, 30, or 60 min, harvested by gentle scraping, and pelleted by centrifugation at 1500 g for 2 min. The weight of the cell pellet and 0.1 mL of the radioactive supernatant was determined. A Packard 5500 gamma counter (PerkinElmer, Billerica, MA, USA) was used to quantify radioactivity as cpm/g cells or cpm/mL media, respectively. Cell-to-medium radioactivity concentration ratios were calculated and plotted over time to evaluate the kinetics of accumulation of the radiotracer.
# (§1) iNOS is the enzyme responsible for NO generation in BV2 cells; therefore, accumulation of [^18F]FBAT in BV2 cells before or after iNOS inhibitor versus NO production was also assessed.
# [8] = tested on: murine microglial BV2 cells; experiment: LPS-dependent nitric oxide (NO) production, Griess assay; type: cell-based; settings: pretreatment 0.1 or 1 mM
# Protocol: Briefly, murine microglial BV2 cells were cultured in high-glucose Dulbecco's modified Eagle's medium (DMEM) supplemented with 100 U/mL penicillin. The cells were cultured in 6-well plates (~50,000 cells/well) in a humidified 5% CO2 atmosphere at 37°C until ∼60–70% confluent, washed three times with fresh media, and cultured in complete media containing LPS (0, 50, 100, or 200 ng/mL, Sigma-Aldrich, St. Louis, MO, USA). At the indicated time points, the culture media were harvested.
# To assay NO, 100 μL aliquots of culture media were added to 100 μL of Griess reagent (1% sulfanilamide in 5% H3PO4) in 96-well plates, incubated at room temperature for 10 min; then, 50 μL NED Griess reagent (0.1% N-naphthyl-ethylenediamine dihydrochloride) was added and incubated for 10 min, and the absorbance values were determined at 540 nm using a TECAN Sunrise ELISA Reader. Fresh culture medium was used as a blank. The concentrations of nitrite were determined by comparison with a standard curve of sodium nitrite prepared in cell culture media.
# as §1
# [9] = target: T1, iNOS (Mus musculus, UniProt P29477); experiment: In vivo brain PET/MR imaging of LPS-induced iNOS expression (SUV, SUR, AUC) incl. aminoguanidine blocking; parameters: species or system C57BL/6 mice; settings: 50 mg/kg i.p. pretreatment
# T1 construct: tracer to detect iNOS expression in mice injected with lipopolysaccharide (LPS) to induce brain inflammation; from tissue; host or cells: brain of living C57BL/6 mice (LPS-induced); fixed brain sections for IHC
# Protocol: For the imaging experiments, twelve C57BL/6 mice were injected i.p. with 0.9% NaCl, eighteen mice were injected i.p. with 0.1 mL of LPS in saline (5 mg/kg), and six mice were injected i.p. with aminoguanidine (Sigma-Aldrich) 30 min prior to 5 mg/kg LPS. In vivo imaging was performed 3 h or 24 h after injection of LPS; then, the mice were immediately humanely euthanized and the brains were removed for immunostaining.
# Mice (n = 30) were anesthetized with 2% isoflurane (in oxygen) and injected with [^18F]FBAT (11.1 MBq; 0.3 mCi) via the tail vein. Dynamic PET images were obtained in fully three-dimensional list mode for 30 min using a small animal SuperArgus 2r PET system (SEDECAL, Madrid, Spain) or 7T PETMR Inline (Bruker, Rheinstetten, Germany; energy window, 350-650 keV; timing window, 6 ns). Images were acquired every 10 s for 12 images, 60 s for three images, 300 s for three images, or 600 s for […]. The anatomical structure of the brain was imaged using T2 MRI. The MRI sequences included 0.5 mm thick T2 Turbo RARE high-resolution images (TR = 3000 ms, TE, 46 ms, matrix, 512 × 256, average, 40, slice number, 30, field of view, 20 × 10 mm).
# After determining the optimal imaging time point for [^18F]FBAT, we performed a blocking study using a selective iNOS inhibitor to assess the specificity of the tracer for iNOS. Separate 7T PET/MR studies with [^18F]FBAT were performed for mice (n = 6) administered a bolus of aminoguanidine (50 mg/kg i.p.) 30 min prior to administration of [^18F]FBAT. The time course of [^18F]FBAT radioactivity in the brain after administration of the iNOS inhibitor was assessed and compared to that of the mice in the LPS 3 h group.
# Images were reconstructed by the Fourier rebinning algorithm and two-dimensional filtered back projection using a ramp filter with a cutoff at Nyquist. The regional radioactivity concentration (kBq/cc) of [^18F]FBAT was estimated from the mean pixel values within the region of interest (ROI) corresponding to MR images of various organs and regions of the brain. ROI for carotid artery, heart muscle, lung, liver, spleen, and kidney were defined and time activity curves (TACs) generated. TACs for whole brain, cortex, cerebellum, and brainstem were also determined as described above.
# The concentration of radioactivity (kBq/cc, μCi/cc) was converted to standardized uptake value (SUV), and the mean and standard deviation (SD) of radiotracer accumulation values were calculated for different organs and regions of the brain. Data were analyzed with PMOD 4.0 software (PMOD Technologies Ltd., Zurich, Switzerland).
# [10] = tested on: iNOS; experiment: Immunohistochemistry of iNOS in brain sections; type: in vivo, C57BL/6 mice; settings: pretreatment, vs LPS 3 h group
# Protocol: After imaging, mice were terminally anesthetized with ketamine/xylazine and perfused with 4% paraformaldehyde, and the brains were dissected, postfixed overnight in 4% paraformaldehyde at 4°C. Five-micrometer thick paraffin-embedded brain tissues were deparaffinized, rehydrated, microwaved in 10 mM citrate buffer (pH 6.0) at 100°C for 10 min for antigen retrieval, washed, incubated in 3% […] for 15 min at RT to inhibit endogenous peroxidases, and blocked in blocking solution for 60 min at RT.
# Sections were incubated with primary NOS2/NOS1 antibodies (Cat# MAB 1627; Abnova, Walnut, CA, USA) diluted 1 : 100 overnight at 4°C, developed using the Vectastain Elite kit (Vector Laboratories, Burlingame, CA) following the manufacturer's instructions, and examined using an AxioScope A1 microscope (Zeiss, Oberkochen, Germany) equipped with an Axiocam 512 color digital camera (Zeiss).
# The immunohistochemistry images were converted into 8-bit grayscale images in the range. Immunostaining intensity was manually measured in the region of interest (ROI). The median (25%, 75% interquartile range) percentage score for each group (control, LPS 3 h, and LPS 24 h) was calculated as the sum of the individual number of slides within the group.
smiles,measurement,setting,value
"NC1=NC2(CCN(C(=O)c3ccc(F)cc3)CC2)Nc2c(F)ccc(F)c21 [FBAT, (4′-amino-5′,8′-difluoro-1′H-spiro[piperidine-4,2′-quinazolin]-1-yl)(4-fluorophenyl)methanone]",logP,[1],1.4 ± 0.27
"NC1=NC(c2ccc(F)cc2)Cc2cccc(F)c21 (stereo not drawn) [FFDI, 8-fluoro-3-(4-fluorophenyl)-3,4-dihydro-1-isoquino-linamine]",IC50,[2]; read-out: IC50 (affinity for iNOS),160 nM
same,selectivity for iNOS vs. eNOS,[3],~ 1000 fold
same,selectivity for iNOS vs. nNOS,[4],100 fold
"COC(=O)[C@@H](N)CCCN=C(N)N[N+](=O)[O-] [[^11C]L-NAME, N-omega-nitro-L-arginine [^11C]methyl ester]",IC50,[2]; read-out: iNOS IC50,20000 nM
same,fraction of radioactivity present as [^11C]methanol (metabolite),[5],65%
"CSC(=N)N [[^11C]MITU, S-[^11C]methylisothiourea]",IC50,[2]; read-out: iNOS IC50,3000 nM
"[11CH3]SC(=N)N [[^11C]MITU, S-[^11C]methylisothiourea]",selectivity vs. eNOS,[3],2.3 fold
"Cc1cc(N)nc(CC(C)F)c1 (stereo not drawn) [[^18F]9, [^18F]6-(2-fluoropropyl)-4-methyl-pyridin-2-amine]",parent fraction of activity in the blood,[6],40.3%
"N=C(N)SCC[18F] [[^18F]FEITU, S-(2-[^18F]fluoroethyl)isothiourea]",IC50,[2]; read-out: iNOS IC50,140 nM
same,selectivity vs. eNOS,[3],9 fold
"N=C(N)NN [aminoguanidine, reference compound]",effect on LPS-induced [^18F]FBAT accumulation in BV2 cells,[7],inhibited
same,effect on LPS-induced [^18F]FBAT accumulation in BV2 cells,[7]; listed as AMG,significantly reduced
same,effect on LPS-induced NO production,[8],completely abolished
same,"effect on [^18F]FBAT accumulation (SUV, AUC, Vt) in brain of LPS-induced mice",[9],significantly decreased
same,"effect on [^18F]FBAT accumulation (SUV, AUC, Vt) in brain of LPS-induced mice",[9]; listed as Aminoguanidine,significantly reduced
same,"effect on LPS-induced iNOS immunoactivity, brainstem",[10],significantly reduced
same,"effect on LPS-induced iNOS immunoreactivity, cortex",[10],significantly reduced
